Ends that are not written are not given here. Peptide text beside a SMILES is read from it.
These compounds were tested against T1, DRB1*0301 (DR3w17) (Homo sapiens, UniProt P01903+P01911, A100K/A102G/A103R/A169T/F55Y/I96L/K41T/L162R/M171V/P40S/Q125H/Q178H/Q39Y/R42S/S66N/T106N/T262R/W38E/Y61H) (assay: Class II peptide-binding assay, DR3 (pH 4.5)). Conditions: Table VIII, page 2; pH 4.5; read-out: In IC50 Format DR3.
T1 construct: used as sources of human HLA class II molecules; endogenous in cells; host or cells: MAT (EBV-transformed homozygous B cell line)
T1 sequence (P01903 26-254, other chains not shown): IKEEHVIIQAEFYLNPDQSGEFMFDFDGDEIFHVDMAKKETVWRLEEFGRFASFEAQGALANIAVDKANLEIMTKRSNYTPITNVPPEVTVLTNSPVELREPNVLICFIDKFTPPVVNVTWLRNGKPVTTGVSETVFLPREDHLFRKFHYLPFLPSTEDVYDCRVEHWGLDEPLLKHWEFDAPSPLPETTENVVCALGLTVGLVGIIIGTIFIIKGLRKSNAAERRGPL
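Note: unlabeled peptide competing with a radiolabeled probe peptide for binding to affinity-purified HLA-DR3, IC50 regarded as an approximation of Kd.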

| IC50 [µM] | Compound |
| --- | --- |
| 0.938 | CC[C@H](C)[C@H](NC(=O)[C@H](CC(N)=O)NC(=O)[C@@H](N)CCC(N)=O)C(=O)N[C@H](C(=O)N[C@@H](CCC(N)=O)C(=O)N[C@@H](CC(N)=O)C(=O)N[C@@H](CC(=O)O)C(=O)N[C@H](C(=O)NCC(=O)N[C@@H](Cc1ccccc1)C(=O)N[C@@H](Cc1ccc(O)cc1)C(=O)N[C@H](C(=O)N[C@@H](CC(C)C)C(=O)N[C@@H](Cc1c[nH]cn1)C(=O)N[C@H](C(=O)O)C(C)C)[C@@H](C)O)[C@@H](C)O)[C@@H](C)CC [Peptide 39.0313] |

Same assay, conditions: Table VIII; values in parentheses read as lower bounds; read-out: In IC50 Format DR3

| IC50 [µM] | Compound |
| --- | --- |
| 5.77 | SLSFLQDIQEVQGYV [Peptide 39.0339] |

Same assay, conditions: read-out: In IC50 Format DR3 nM; Table VIII; values in parentheses read as lower bounds

| IC50 [µM] | Compound |
| --- | --- |
| 11.1 | CC(C)C[C@H](NC(=O)[C@@H]1CCCN1C(=O)[C@@H](NC(=O)[C@@H](NC(=O)[C@@H]1CCCN1C(=O)[C@H](CC(=O)O)NC(=O)[C@H](CCC(=O)O)NC(=O)[C@H](CO)NC(=O)[C@H](Cc1ccc(O)cc1)NC(=O)[C@H](CCCNC(=N)N)NC(=O)[C@H](CCC(N)=O)NC(=O)[C@@H](N)CC(C)C)[C@@H](C)O)C(C)C)C(=O)N1CCC[C@H]1C(=O)N[C@@H](CO)C(=O)N[C@@H](CCC(=O)O)C(=O)O [Peptide 39.0379] |
| 66.7 | QGFFCPDPAPGAGGM [Peptide 39.0376] |
| 130 | CC(C)C[C@H](NC(=O)[C@@H](NC(=O)[C@H](CCC(=O)O)NC(=O)[C@H](Cc1ccccc1)NC(=O)[C@@H](NC(=O)[C@H](CCC(N)=O)NC(=O)[C@H](CC(C)C)NC(=O)[C@H](CCC(N)=O)NC(=O)[C@H](CCC(=O)O)NC(=O)[C@@H]1CCCN1C(=O)[C@H](CCC(N)=O)NC(=O)[C@H](CC(C)C)NC(=O)[C@@H]1CCCN1C(=O)[C@H](C)NC(=O)[C@@H](N)[C@@H](C)O)C(C)C)[C@@H](C)O)C(=O)O [Peptide 39.0351] |
| > 111 | SLAFLPESFDGDPAS [Peptide 39.0349] |
| > 111 | ETEYHADGGKVPIKW [Peptide 39.0367] |
| > 111 | MRRLLQETELVEPLT [Peptide 39.0360] |
| > 111 | CSCC[C@H](NC(=O)[C@H](CC(=O)O)NC(=O)[C@H](CC(C)C)NC(=O)[C@H](Cc1c[nH]cn1)NC(=O)[C@@H](NC(=O)[C@H](CCC(=O)O)NC(=O)[C@@H]1CCCN1C(=O)[C@H](CO)NC(=O)[C@H](C)NC(=O)[C@@H]1CCCN1C(=O)[C@H](CC(C)C)NC(=O)[C@@H](N)CCCNC(=N)N)[C@@H](C)O)C(=O)N[C@@H](CC(C)C)C(=O)N[C@@H](CCCNC(=N)N)C(=O)N[C@@H](Cc1c[nH]cn1)C(=O)O [Peptide 39.0338] |
| 40 | AIKVLRENTSPKANK [Peptide 39.0362] |
| > 120 | KNGVVKDVFAFGGAV [Peptide 39.0381] |
| 12 | GDLVDAEEYLVPQQG [Peptide 39.0375] |
| > 111 | CC[C@H](C)[C@H](N)C(=O)N[C@@H](Cc1c[nH]c2ccccc12)C(=O)N[C@@H](CCCCN)C(=O)N[C@@H](Cc1ccccc1)C(=O)N1CCC[C@H]1C(=O)N[C@@H](CC(=O)O)C(=O)N[C@@H](CCC(=O)O)C(=O)N[C@@H](CCC(=O)O)C(=O)NCC(=O)N[C@@H](C)C(=O)N[C@@H](CS)C(=O)N[C@@H](CCC(N)=O)C(=O)N1CCC[C@H]1C(=O)N[C@@H](CS)C(=O)N1CCC[C@H]1C(=O)O [Peptide 39.0358] (H-IWKFPDEEGACQPCP-OH) |
| > 111 | CC(C)C[C@H](NC(=O)[C@@H]1CCCN1C(=O)[C@H](C)NC(=O)[C@@H](NC(=O)[C@H](CC(N)=O)NC(=O)[C@H](CO)NC(=O)[C@H](C)NC(=O)[C@@H]1CCCN1C(=O)[C@H](CC(=O)O)NC(=O)CNC(=O)[C@H](CC(=O)O)NC(=O)[C@H](Cc1ccccc1)NC(=O)[C@H](CO)NC(=O)[C@H](CCC(=O)O)NC(=O)[C@@H]1CCCN1)[C@@H](C)O)C(=O)O [Peptide 39.0350] |
| 41.7 | CC[C@H](C)[C@H](NC(=O)CNC(=O)[C@H](Cc1ccccc1)NC(=O)[C@@H](NC(=O)[C@H](CC(C)C)NC(=O)[C@@H](N)CCC(N)=O)C(C)C)C(=O)N[C@@H](CCC(=O)O)C(=O)N[C@H](C(=O)N[C@H](C(=O)N[C@@H](CCC(=O)O)C(=O)N[C@H](C(=O)N[C@H](C(=O)N1CCC[C@H]1C(=O)N[C@H](C(=O)N[C@@H](CO)C(=O)O)[C@@H](C)CC)C(C)C)C(C)C)C(C)C)C(C)C [Peptide 39.0389] |
| > 120 | FVVIQNEDLGPASPL [Peptide 39.0372] |
| > 111 | CC(C)C[C@H](NC(=O)[C@H](CS)NC(=O)[C@H](Cc1c[nH]cn1)NC(=O)[C@H](CCCNC(=N)N)NC(=O)[C@H](C)NC(=O)[C@H](CC(N)=O)NC(=O)[C@@H](NC(=O)[C@H](Cc1ccc(O)cc1)NC(=O)[C@H](CCC(=O)O)NC(=O)[C@H](CCCNC(=N)N)NC(=O)[C@@H]1CCCN1C(=O)[C@H](CC(C)C)NC(=O)CNC(=O)[C@H](CCC(N)=O)NC(=O)[C@@H](N)CC(C)C)C(C)C)C(=O)O [Peptide 39.0355] |
| 13.6 | CC(C)C[C@H](NC(=O)[C@H](CCC(N)=O)NC(=O)[C@H](CC(=O)O)NC(=O)[C@H](Cc1c[nH]c2ccccc12)NC(=O)[C@@H]1CCCN1C(=O)[C@@H](NC(=O)[C@@H](NC(=O)[C@H](Cc1c[nH]cn1)NC(=O)[C@@H](N)C(C)C)[C@@H](C)O)C(C)C)C(=O)N[C@@H](Cc1ccccc1)C(=O)N[C@@H](CCCNC(=N)N)C(=O)N[C@@H](CC(N)=O)C(=O)N1CCC[C@H]1C(=O)N[C@@H](Cc1c[nH]cn1)C(=O)N[C@@H](CCC(N)=O)C(=O)O [Peptide 39.0353] |
| 36.1 | CSCC[C@H](NC(=O)CNC(=O)[C@H](CC(C)C)NC(=O)CNC(=O)[C@H](Cc1ccc(O)cc1)NC(=O)[C@@H](N)CS)C(=O)N[C@@H](CCC(=O)O)C(=O)N[C@@H](Cc1c[nH]cn1)C(=O)N[C@@H](CC(C)C)C(=O)N[C@@H](CCCNC(=N)N)C(=O)N[C@@H](CCC(=O)O)C(=O)N[C@H](C(=O)N[C@@H](CCCNC(=N)N)C(=O)N[C@@H](C)C(=O)N[C@H](C(=O)O)C(C)C)C(C)C [Peptide 39.0348] |
| > 111 | NQEVTAEDGTQRCEK [Peptide 39.0347] |
| > 120 | DLTLGLEPSEEEAPR [Peptide 39.0377] |
| 63.8 | NKEILDEAYVMAGVG [Peptide 39.0363] |
| > 111 | CC(C)[C@H](N)C(=O)N[C@H](C(=O)N[C@@H](CS)C(=O)N[C@@H](Cc1ccccc1)C(=O)NCC(=O)N1CCC[C@H]1C(=O)N[C@@H](CCC(=O)O)C(=O)N[C@@H](C)C(=O)N[C@@H](CC(=O)O)C(=O)N[C@@H](CCC(N)=O)C(=O)N[C@@H](CS)C(=O)N[C@H](C(=O)N[C@@H](C)C(=O)N[C@@H](CS)C(=O)N[C@@H](C)C(=O)O)C(C)C)[C@@H](C)O [Peptide 39.0356] |
| > 120 | TVPLPSETDGYVAPL [Peptide 39.0380] |
| > 120 | DNLYYWDQDPPERGA [Peptide 39.0383] |
| > 111 | CC(C)C[C@H](NC(=O)[C@H](CC(=O)O)NC(=O)[C@@H](NC(=O)[C@H](CS)NC(=O)[C@H](CO)NC(=O)[C@@H](N)Cc1c[nH]cn1)C(C)C)C(=O)N[C@@H](CC(=O)O)C(=O)N[C@@H](CC(=O)O)C(=O)N[C@@H](CCCCN)C(=O)NCC(=O)N[C@@H](CS)C(=O)N1CCC[C@H]1C(=O)N[C@@H](C)C(=O)N[C@@H](CCC(=O)O)C(=O)N[C@@H](CCC(N)=O)C(=O)O [Peptide 39.0359] |

Same assay, conditions: read-out: In IC50 Format DR3; Table VIII

| IC50 [µM] | Compound |
| --- | --- |
| 20 | CC[C@H](C)[C@H](NC(=O)[C@H](CC(=O)O)NC(=O)[C@H](CC(=O)O)NC(=O)[C@@H]1CCCN1C(=O)[C@H](CO)NC(=O)[C@H](CC(C)C)NC(=O)[C@H](CCSC)NC(=O)[C@H](CC(C)C)NC(=O)[C@@H](N)CC(=O)O)C(=O)N[C@@H](CCC(=O)O)C(=O)N[C@@H](CCC(N)=O)C(=O)N[C@@H](Cc1c[nH]c2ccccc12)C(=O)N[C@@H](Cc1ccccc1)C(=O)N[C@H](C(=O)N[C@@H](CCC(=O)O)C(=O)O)[C@@H](C)O [Peptide 39.0411] |
| 76.9 | CC(C)C[C@H](NC(=O)[C@H](CC(N)=O)NC(=O)CNC(=O)[C@@H](N)CCC(=O)O)C(=O)N[C@@H](CCCNC(=N)N)C(=O)N[C@H](C(=O)N[C@@H](CCC(=O)O)C(=O)N[C@@H](Cc1ccc(O)cc1)C(=O)N[C@@H](CC(C)C)C(=O)N[C@@H](CC(=O)O)C(=O)N[C@@H](CC(=O)O)C(=O)N[C@@H](CCCNC(=N)N)C(=O)N[C@@H](CC(N)=O)C(=O)N[C@H](C(=O)N[C@@H](Cc1ccccc1)C(=O)O)[C@@H](C)O)C(C)C [Peptide 39.0417] |
| > 120 | CC[C@H](C)[C@H](NC(=O)[C@H](C)NC(=O)[C@@H](N)CCSC)C(=O)N[C@@H](Cc1ccc(O)cc1)C(=O)N[C@@H](CCCCN)C(=O)N[C@@H](CCC(N)=O)C(=O)N[C@@H](CO)C(=O)N[C@@H](CCC(N)=O)C(=O)N[C@@H](Cc1c[nH]cn1)C(=O)N[C@@H](CCSC)C(=O)N[C@H](C(=O)N[C@@H](CCC(=O)O)C(=O)N[C@H](C(=O)N[C@H](C(=O)N[C@@H](CCCNC(=N)N)C(=O)O)C(C)C)C(C)C)[C@@H](C)O [Peptide 39.0414] |
| > 120 | CC[C@H](C)[C@H](NC(=O)[C@H](C)NC(=O)[C@@H](N)CC(C)C)C(=O)N[C@H](C(=O)N[C@@H](C)C(=O)N[C@@H](CCCNC(=N)N)C(=O)N[C@@H](CCC(=O)O)C(=O)NCC(=O)N[C@@H](CC(=O)O)C(=O)N[C@@H](CS)C(=O)N[C@@H](C)C(=O)N1CCC[C@H]1C(=O)N[C@@H](CCC(=O)O)C(=O)N[C@@H](CCC(=O)O)C(=O)N[C@@H](CCCCN)C(=O)O)[C@@H](C)CC [Peptide 39.0405] |
| 10 | CC(C)C[C@H](NC(=O)[C@H](CCC(N)=O)NC(=O)[C@@H](NC(=O)[C@@H]1CCCN1)C(C)C)C(=O)N[C@@H](Cc1c[nH]c2ccccc12)C(=O)N[C@H](C(=O)N[C@@H](CC(=O)O)C(=O)N[C@@H](CO)C(=O)N[C@H](C(=O)N1CCC[C@H]1C(=O)N1CCC[C@H]1C(=O)N1CCC[C@H]1C(=O)NCC(=O)N[C@H](C(=O)N[C@@H](CCCNC(=N)N)C(=O)O)[C@@H](C)O)[C@@H](C)O)C(C)C [Peptide 39.0413] |
